This passage reports IC50 results from US7122570B2, “Tetrahydrocarbazol derivatives as ligands for G-protein-coupled receptors (GPCR)” (Zentaris AG, priority 2001, dated 2006).

One experiment deals with T1, GnRH receptor (Homo sapiens, UniProt P30968).
T1 sequence (P30968 1-328): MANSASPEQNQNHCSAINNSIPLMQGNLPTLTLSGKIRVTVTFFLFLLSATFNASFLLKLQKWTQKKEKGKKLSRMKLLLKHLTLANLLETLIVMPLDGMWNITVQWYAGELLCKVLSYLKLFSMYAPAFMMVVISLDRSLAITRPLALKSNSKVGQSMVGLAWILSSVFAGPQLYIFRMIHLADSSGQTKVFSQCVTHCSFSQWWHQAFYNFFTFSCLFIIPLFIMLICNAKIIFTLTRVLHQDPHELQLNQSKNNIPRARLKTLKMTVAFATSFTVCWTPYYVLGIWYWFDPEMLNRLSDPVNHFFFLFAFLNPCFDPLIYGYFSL
Put plainly: Ca2+ release, human. It counts as cell-based. The following applies: read-out: Ca^2+ Release Human IC50.

The target in a further experiment is T2, hGnRH-Receptor (Homo sapiens, UniProt P30968).
T2 construct: expressed in transfected cells; host or cells: CHO-3 cells (Schmid et al., J. Biol. Chem. 275 (2000), 9193-9200), membrane preparation
T2 sequence (P30968 1-328): T1 sequence (P30968 1-328)
The experiment is described as follows: GnRH receptor assay: competition binding with 125I-labeled buserelin on cell membranes. The following applies: competition with 125I-buserelin. The method, then: Buserelin is ordered from Welding (Frankfurt/Main, Germany). The compound is labeled with ^125I by use of the chloramine T-method and Na^125I (4000 Ci/mmol; Amersham-Buchler, Brunswick, Germany). The labeled substance is purified by reverse phase HPLC on a Spherisorb ODS II column (250×4 mm, particle size 3 μm) by elution with 50% acetonitrile/0.15% trifluoroacetic acid at a flow rate of 0.5 ml/minute. The specific activity is 2000 Ci/mmol.
Alpha T3-1 cells (Bilezikjian et al., Mol. Endocrinol 5 (1991), 347–355) are cultivated in DMEM medium (Gibco-BRL, Eggenstein-Leopoldshafen, Germany) with penicillin (100 I.U./ml), streptomycin (0.1 mg/ml) and glutamine (0.01 mol/l) and 10% fetal calf serum (FCS; PAA Laboratories, Coelbe, Germany) on plastic tissue culture plates (Nunc, 245×245×20 mm). CHO-3 cells (Schmid et al., J. Biol. Chem. 275 (2000), 9193–9200) are cultivated under identical conditions, apart from the fact that Ham's F12 medium (Gibco-BRL) is used.
Ten confluent cell culture plates are flushed twice with 50 ml of phosphate-buffered salt solution (PBS). The cells are harvested by scraping them off with a rubber scraper in 5 ml of PBS and sedimented by centrifuging in a laboratory centrifuge (Heraeus) at 800 rpm for 10 minutes. The cell pellet is resuspended in 5 ml of 0.25 mol/l of saccharose/0.01 mol/l of triethanolamine, pH 7.4. The cells are lysed by three cycles of freezing in dry ice/ethanol bath and thawing at room temperature. The lysate is centrifuged at 900 rpm for 10 minutes, and the sediment is discarded. The supernatant is centrifuged at 18,000 rpm in a Sorvall SS34 rotor for 30 minutes. The pellet (cell membranes) is suspended by Potters in 5 ml of assay buffer (0.25 mol/l of saccharose, 0.01 mol/l of triethanolamine, pH 7.5, 1 mg/ml of ovalbumin) and stored in 200 μl of aliquots at −20° C. The determination of protein is carried out according to the Bradford method (Anal. Biochem. 72 (1976), 248–254).
Binding studies for competition curves are performed as triplicates. A test sample contains 60 μl of cell membrane suspension (10 μg of protein for αT3-1 cells or 40 μg of protein for CHO3 cells), 20 μl of ^125I-labeled buserelin (100,000 Ipm per sample for competition curves and between 1,500 and 200,000 Ipm for saturation experiments) and 20 μl of test buffer or test compound solution. The test compounds are dissolved in distilled water or 50% ethanol. Serial dilutions (5×10^−6 mol/l to […]) are produced in test buffer. The unspecific binding is determined in the presence of excess unlabeled buserelin (10^−6 mol/1). The test samples are incubated for 30 minutes at room temperature. Bonded and free ligands are separated by filtration (Whatman GF/C-filter, 2.5 cm diameter) with use of an Amicon 10x collecting device and washed twice with 5 ml of 0.02 mol/l of Tris/HCl, pH 7.4. The filters are moistened with 0.3% polyethylenimine (Serva; Heidelberg, Germany) for 30 minutes to reduce the unspecific binding. The radioactivity that was held up by the filter is determined in a 5-channel gamma-counter (Wallac-LKB 1470 Wizard).
In the table below, the IC50 values that are obtained for the preferred compounds, as defined above, are indicated.

`CC[C@H](C)[C@H](NC(=O)OCc1ccccc1)C(=O)N[C@]1(C(=O)N[C@H](C(N)=O)C(C)C)CCc2[nH]c3ccc(Cl)cc3c2C1` [Compound 148a, Phenylmethyl [(1S,2S)-1-[[[(3R)-3-[[[(1S)-1-(aminocarbonyl)-2-methylpropyl]amino]-carbonyl]-6-chloro-2,3,4,9-tetrahydro-1H-carbazol-3-yl]amino]carbonyl]-2-methylbutyl]carbamate]: the IC50 stood at 140 nM on GnRH receptor and 80 nM at hGnRH-Receptor.

Take `CC[C@H](C)[C@H](NC(=O)OCc1ccccc1)C(=O)N[C@]1(C(=O)N[C@H](C(N)=O)C(C)C)CCc2[nH]c3c(C)cccc3c2C1` [Compound 150a, Phenylmethyl [(1S,2S)-1-[[[(3R)-3-[[[(1S)-1-(aminocarbonyl)-2-methylpropyl]amino]-carbonyl]-2,3,4,9-tetrahydro-8-methyl-1H-carbazol-3-yl]amino]carbonyl]-2-methylbutyl]carbamate]: the half-inhibitory concentration (IC50) on GnRH receptor was found to be 280 nM; on hGnRH-Receptor, 110 nM.

Take `CC(C)C(NC(=O)C1(NC(=O)Cc2ccc3ccccc3c2)CCc2[nH]c3ccccc3c2C1)C(N)=O` [Compound 161b, (3S)-N-[(1S)-1-(Aminocarbonyl)-2-methyl-propyl]-2,3,4,9-tetrahydro-3-[(2-naphthalenyl-acetyl)amino]-1H-carbazole-3-carboxamide]: the results for the IC50 at GnRH receptor and at hGnRH-Receptor were 3600 nM and 3700 nM, respectively.

Regarding `CC(C)[C@H](NC(=O)[C@]1(NC(=O)Cc2c[nH]c3ccccc23)CCc2[nH]c3ccccc3c2C1)C(N)=O` [Compound 164b, (3S)-N-[(1S)-1-(Aminocarbonyl)-2-methyl-propyl]-2,3,4,9-tetrahydro-3-[(1H-indol-3-yl-acetyl)amino]-1H-carbazole-3-carboxamide], the IC50 on GnRH receptor is 6500 nM; at hGnRH-Receptor, 6000 nM.

As for `CC(C)[C@H](NC(=O)[C@@]1(NC(=O)Cc2ccc(Cl)cc2)CCc2[nH]c3ccccc3c2C1)C(N)=O` [Compound 167a, (3R)-N-[(1S)-1-(Aminocarbonyl)-2-methyl-propyl]-3-[[(4-chlorophenyl)acetyl]amino]-2,3,4,9-tetrahydro-1H-carbazole-3-carboxamide], the IC50 is 2600 nM at GnRH receptor and 1000 nM at hGnRH-Receptor.

For the compound `COc1ccc(CC(=O)NC2(C(=O)N[C@H](C(N)=O)C(C)C)CCc3[nH]c4ccccc4c3C2)cc1` (stereo partly drawn) [Compound 175, N-[(1S)-1-(Aminocarbonyl)-2-methylpropyl]-2,3,4,9-tetrahydro-3-[[(4-methoxyphenyl)-acetyl]amino]-1H-carbazole-3-carboxamide], the values for the IC50 at GnRH receptor and at hGnRH-Receptor were 1800 nM and 8000 nM, respectively.

Consider `CC[C@H](C)[C@H](NC(=O)OCc1ccccc1)C(=O)N[C@]1(C(=O)N2CCC[C@H]2C(N)=O)CCc2[nH]c3ccccc3c2C1` [Compound 181a, Phenylmethyl [(1S,2S)-1-[[[(3R)-3-[[(2S)-2-(aminocarbonyl)-1-pyrrolidinyl]carbonyl]-2,3,4,9-tetrahydro-1H-carbazol-3-yl]amino]-carbonyl]-2-methylbutyl]carbamate], for which the IC50 at GnRH receptor worked out at 3000 nM; on hGnRH-Receptor, 700 nM.

On to `CC[C@H](C)[C@H](NC(=O)OCc1ccccc1)C(=O)N[C@]1(C(=O)N[C@H](C(N)=O)C(C)C)CCc2[nH]c3c(Cl)cc(Cl)cc3c2C1` [Compound 184a, Phenylmethyl [(1S,2S)-1-[[[(3R)-3-[[[(1S)-1-(aminocarbonyl)-2-methylpropyl]amino]-carbonyl]-6,8-dichloro-2,3,4,9-tetrahydro-1H-carbazol-3-yl]amino]carbonyl]-2-methylbutyl]-carbamate], for which the IC50 was found to be 45 nM at GnRH receptor and 15 nM at hGnRH-Receptor.

On to `COc1cccc2c3c([nH]c12)CC[C@](NC(=O)Cc1ccc(Cl)cc1)(C(=O)N1CCC[C@H]1C(N)=O)C3` [Compound 189a, (2S)-1-[[(3R)-3-[[(4-Chlorophenyl)acetyl]-amino]-2,3,4,9-tetrahydro-8-methoxy-1H-carbazol-3-yl]carbonyl]-2-pyrrolidine-carboxamide], for which the results for the IC50 on GnRH receptor and on hGnRH-Receptor were 500 nM and 700 nM, respectively.
